Test results reported in paper PMC10650464, “Natural Compounds Purified from the Leaves of Aristotelia chilensis: Makomakinol, a New Alkaloid and the Effect of Aristoteline and Hobartine on NaV Channels” (International Journal of Molecular Sciences, 2023).
Like-named read-outs stand apart in the source and are kept apart here.

Assays:
[1] = tested on: rodent vascular smooth muscle; parameters: method as in PMID 31362388; settings: rodent vascular smooth muscle ex vivo; via activation of potassium channels and inhibition of CaV1.2; read-out: IC50, vasodilation; cited from earlier work
nAChR subtype α3β4 = tested on: nAChR subtype α3β4; parameters: method as in PMID 31276409; settings: cited from earlier work
human NaV1.7/β1 = human NaV1.7/β1 (Homo sapiens, UniProt Q15858); experiment: Automated whole-cell patch-clamp electrophysiology (QPatch-16), NaV1.7; type: cell-based; settings: 50 ms voltage step to −20 mV from −90 mV holding potential; HEK293 cells; mean ± SEM; read-out: IC50, inhibition of NaV1.7 peak current
Sequence of human NaV1.7/β1 (Q15858 whole entry): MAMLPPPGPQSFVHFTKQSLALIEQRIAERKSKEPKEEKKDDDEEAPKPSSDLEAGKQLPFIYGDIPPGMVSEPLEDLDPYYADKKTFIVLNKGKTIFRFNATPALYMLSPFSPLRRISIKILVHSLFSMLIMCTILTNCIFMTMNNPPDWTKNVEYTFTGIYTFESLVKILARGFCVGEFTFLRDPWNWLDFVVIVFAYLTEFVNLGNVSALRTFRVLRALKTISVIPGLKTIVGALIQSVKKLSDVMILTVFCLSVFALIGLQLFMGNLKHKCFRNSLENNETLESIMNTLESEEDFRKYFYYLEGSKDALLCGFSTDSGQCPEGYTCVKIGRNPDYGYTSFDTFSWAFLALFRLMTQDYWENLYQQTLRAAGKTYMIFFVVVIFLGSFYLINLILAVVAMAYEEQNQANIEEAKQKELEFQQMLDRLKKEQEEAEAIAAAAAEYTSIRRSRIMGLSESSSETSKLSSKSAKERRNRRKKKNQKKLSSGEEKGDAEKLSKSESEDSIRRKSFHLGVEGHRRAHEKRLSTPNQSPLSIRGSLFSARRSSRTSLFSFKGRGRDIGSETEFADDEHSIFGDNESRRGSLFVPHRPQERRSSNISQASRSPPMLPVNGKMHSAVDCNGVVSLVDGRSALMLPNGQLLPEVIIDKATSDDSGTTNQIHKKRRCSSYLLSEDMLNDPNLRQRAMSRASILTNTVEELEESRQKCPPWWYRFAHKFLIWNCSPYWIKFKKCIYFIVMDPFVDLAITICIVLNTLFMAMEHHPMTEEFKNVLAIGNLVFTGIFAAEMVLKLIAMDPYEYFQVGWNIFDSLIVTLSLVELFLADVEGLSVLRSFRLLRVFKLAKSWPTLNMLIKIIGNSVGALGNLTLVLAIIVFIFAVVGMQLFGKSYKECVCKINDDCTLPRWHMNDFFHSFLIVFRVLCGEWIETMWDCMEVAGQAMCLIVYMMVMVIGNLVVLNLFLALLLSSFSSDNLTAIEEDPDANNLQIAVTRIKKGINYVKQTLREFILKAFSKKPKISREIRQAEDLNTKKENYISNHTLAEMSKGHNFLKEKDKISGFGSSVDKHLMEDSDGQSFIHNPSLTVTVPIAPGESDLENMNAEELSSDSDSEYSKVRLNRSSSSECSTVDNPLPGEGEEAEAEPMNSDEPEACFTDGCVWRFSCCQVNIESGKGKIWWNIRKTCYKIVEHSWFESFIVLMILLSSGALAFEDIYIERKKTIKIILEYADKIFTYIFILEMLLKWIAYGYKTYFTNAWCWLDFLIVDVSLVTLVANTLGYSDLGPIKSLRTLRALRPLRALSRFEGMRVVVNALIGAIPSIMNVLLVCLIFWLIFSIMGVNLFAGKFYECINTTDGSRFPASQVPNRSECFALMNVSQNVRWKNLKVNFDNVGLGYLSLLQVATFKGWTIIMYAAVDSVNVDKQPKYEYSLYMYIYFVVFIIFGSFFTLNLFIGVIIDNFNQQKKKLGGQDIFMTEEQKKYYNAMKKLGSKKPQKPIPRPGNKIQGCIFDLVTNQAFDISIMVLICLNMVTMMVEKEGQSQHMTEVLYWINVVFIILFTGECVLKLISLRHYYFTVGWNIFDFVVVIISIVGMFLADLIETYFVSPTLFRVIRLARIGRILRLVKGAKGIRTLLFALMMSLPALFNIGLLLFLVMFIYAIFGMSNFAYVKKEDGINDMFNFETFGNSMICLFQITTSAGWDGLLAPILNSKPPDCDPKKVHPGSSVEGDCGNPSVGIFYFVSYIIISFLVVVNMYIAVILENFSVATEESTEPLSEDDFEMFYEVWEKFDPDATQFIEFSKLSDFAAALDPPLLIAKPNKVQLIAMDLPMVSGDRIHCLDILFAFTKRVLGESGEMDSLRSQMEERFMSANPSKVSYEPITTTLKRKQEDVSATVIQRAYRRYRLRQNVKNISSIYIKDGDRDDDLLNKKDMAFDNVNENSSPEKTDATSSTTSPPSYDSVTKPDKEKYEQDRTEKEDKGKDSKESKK
Sequence of human NaV1.7/β1 (Q07699 19-218 partner): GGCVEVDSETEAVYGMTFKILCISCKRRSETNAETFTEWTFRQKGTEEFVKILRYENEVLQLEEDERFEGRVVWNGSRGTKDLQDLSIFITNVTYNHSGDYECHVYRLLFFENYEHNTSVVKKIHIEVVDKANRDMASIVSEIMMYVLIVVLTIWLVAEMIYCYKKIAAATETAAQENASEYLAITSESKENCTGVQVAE
Description: Human embryonic kidney (HEK) 293 cells stably expressing human NaV1.7/β1 (SB Drug Discovery, Glasgow, UK) or Chinese hamster ovary (CHO) cells stably expressing human NaV1.8/β3 in a tetracycline-inducible system were cultured in a minimum essential media (MEM) supplemented with 10% fetal bovine serum (FBS), 2 mM l-glutamine, and selection antibiotics as recommended by the manufacturer. To induce hNaV1.8 expression, tetracycline (1 μg/mL) was added to the culture media 72 h prior to the functional assays. The cells were passaged every 3–4 days after reaching a 70–80% confluence using TrypLE Express (Thermo Fisher Scientific, Scoresby, VIC, Australia) and grown in an incubator at 37 °C with 5% CO2. Prior to the electrophysiology experiments, the cells were dissociated with TrypLE Express and resuspended in Dulbecco’s Modified Eagle Medium (DMEM) with 25 mM HEPES, 100 U/mL penicillin-streptomycin, and 0.04 mg/mL of a trypsin inhibitor from Glycine max (soybean), then stirred for 30 min. […]
The data were plotted and analyzed via GraphPad Prism, version 9.5.1. Statistical significance was defined as p < 0.05 and was determined via the paired t-test. […] The data are expressed as the mean ± standard error of the mean (SEM).

human NaV1.8/β3 = molecular target: T1, human NaV1.8/β3 (Homo sapiens, UniProt Q9Y5Y9); experiment: Automated whole-cell patch-clamp electrophysiology (QPatch-16), NaV1.8; type: cell-based; settings: for IC50: CHO cells, mean ± SEM; for V1/2 of voltage-dependence of activation of NaV1.8 / V1/2 of voltage-dependence of steady-state fast inactivation of NaV1.8: compound at 50 µM, compared with control before addition, paired t-test
T1 construct: expressed in transfected cells
T1 sequence (Q9Y5Y9 whole entry): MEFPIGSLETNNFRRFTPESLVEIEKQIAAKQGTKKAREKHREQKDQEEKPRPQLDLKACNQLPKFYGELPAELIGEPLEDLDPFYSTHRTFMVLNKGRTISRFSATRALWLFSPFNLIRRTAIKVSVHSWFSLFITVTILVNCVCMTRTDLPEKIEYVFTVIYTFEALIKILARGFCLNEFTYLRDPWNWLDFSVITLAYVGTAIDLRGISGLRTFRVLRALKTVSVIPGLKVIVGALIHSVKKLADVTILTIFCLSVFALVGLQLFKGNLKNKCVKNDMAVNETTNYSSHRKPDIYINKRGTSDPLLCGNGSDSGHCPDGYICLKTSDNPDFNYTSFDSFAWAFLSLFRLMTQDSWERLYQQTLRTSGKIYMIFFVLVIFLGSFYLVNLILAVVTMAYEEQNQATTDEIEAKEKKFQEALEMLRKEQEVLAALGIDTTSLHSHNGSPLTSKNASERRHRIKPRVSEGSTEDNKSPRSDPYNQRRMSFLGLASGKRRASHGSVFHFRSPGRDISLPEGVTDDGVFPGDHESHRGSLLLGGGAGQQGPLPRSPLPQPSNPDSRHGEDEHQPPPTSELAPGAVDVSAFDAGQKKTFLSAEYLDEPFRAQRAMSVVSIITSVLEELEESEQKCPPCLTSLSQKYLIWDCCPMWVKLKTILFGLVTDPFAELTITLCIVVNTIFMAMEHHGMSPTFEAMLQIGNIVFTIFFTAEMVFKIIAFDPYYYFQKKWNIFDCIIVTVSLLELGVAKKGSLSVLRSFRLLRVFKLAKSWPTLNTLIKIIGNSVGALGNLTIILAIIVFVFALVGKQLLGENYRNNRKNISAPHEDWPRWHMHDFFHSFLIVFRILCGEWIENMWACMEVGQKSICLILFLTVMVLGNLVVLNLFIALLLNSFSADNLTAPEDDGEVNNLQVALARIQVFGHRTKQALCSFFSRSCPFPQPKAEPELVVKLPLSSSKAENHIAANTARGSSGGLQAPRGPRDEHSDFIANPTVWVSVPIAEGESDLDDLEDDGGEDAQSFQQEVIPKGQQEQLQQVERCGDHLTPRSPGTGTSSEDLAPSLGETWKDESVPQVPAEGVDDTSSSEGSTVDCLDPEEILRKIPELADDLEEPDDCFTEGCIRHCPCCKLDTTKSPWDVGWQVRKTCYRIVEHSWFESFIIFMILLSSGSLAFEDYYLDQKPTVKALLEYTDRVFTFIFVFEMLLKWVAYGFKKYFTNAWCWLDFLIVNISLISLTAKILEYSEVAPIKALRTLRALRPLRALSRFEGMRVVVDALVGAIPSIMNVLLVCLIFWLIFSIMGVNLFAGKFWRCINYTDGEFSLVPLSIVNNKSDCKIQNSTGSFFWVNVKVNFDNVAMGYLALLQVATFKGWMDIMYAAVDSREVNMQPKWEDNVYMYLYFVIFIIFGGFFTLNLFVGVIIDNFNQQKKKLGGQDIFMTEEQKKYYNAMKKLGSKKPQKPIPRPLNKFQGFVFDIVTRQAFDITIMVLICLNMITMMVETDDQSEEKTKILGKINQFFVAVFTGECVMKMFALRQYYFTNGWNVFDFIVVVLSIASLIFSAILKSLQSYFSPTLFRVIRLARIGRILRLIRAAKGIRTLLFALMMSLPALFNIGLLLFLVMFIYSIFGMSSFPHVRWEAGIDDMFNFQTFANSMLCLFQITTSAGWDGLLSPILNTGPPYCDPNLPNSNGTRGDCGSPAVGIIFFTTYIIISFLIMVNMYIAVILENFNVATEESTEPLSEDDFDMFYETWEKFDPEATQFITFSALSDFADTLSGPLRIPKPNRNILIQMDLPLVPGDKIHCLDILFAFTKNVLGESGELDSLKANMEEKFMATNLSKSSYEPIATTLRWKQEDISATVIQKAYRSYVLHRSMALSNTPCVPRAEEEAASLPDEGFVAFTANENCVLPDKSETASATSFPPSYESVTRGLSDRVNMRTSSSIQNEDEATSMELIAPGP
T1 sequence (Q9NY72 25-215 partner limits assumed): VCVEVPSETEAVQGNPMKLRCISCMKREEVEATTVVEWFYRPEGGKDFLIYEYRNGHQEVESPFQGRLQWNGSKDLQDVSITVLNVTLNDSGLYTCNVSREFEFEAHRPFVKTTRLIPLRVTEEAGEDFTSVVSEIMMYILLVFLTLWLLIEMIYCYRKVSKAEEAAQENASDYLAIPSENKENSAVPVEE
Description: Human embryonic kidney (HEK) 293 cells stably expressing human NaV1.7/β1 (SB Drug Discovery, Glasgow, UK) or Chinese hamster ovary (CHO) cells stably expressing human NaV1.8/β3 in a tetracycline-inducible system were cultured in a minimum essential media (MEM) supplemented with 10% fetal bovine serum (FBS), 2 mM l-glutamine, and selection antibiotics as recommended by the manufacturer. To induce hNaV1.8 expression, tetracycline (1 μg/mL) was added to the culture media 72 h prior to the functional assays. The cells were passaged every 3–4 days after reaching a 70–80% confluence using TrypLE Express (Thermo Fisher Scientific, Scoresby, VIC, Australia) and grown in an incubator at 37 °C with 5% CO2. Prior to the electrophysiology experiments, the cells were dissociated with TrypLE Express and resuspended in Dulbecco’s Modified Eagle Medium (DMEM) with 25 mM HEPES, 100 U/mL penicillin-streptomycin, and 0.04 mg/mL of a trypsin inhibitor from Glycine max (soybean), then stirred for 30 min.
Whole-cell patch-clamp experiments were performed on a QPatch-16 automated electrophysiology platform (Sophion Bioscience, Ballerup, Denmark) using single hole (QPlate 16 with a standard resistance of 2 ± 0.4 MΩ for NaV1.7) or multi-hole (QPlate 16× with a standard resistance 0.2 ± 0.04 MΩ for NaV1.8). Whole-cell currents were filtered at 8 kHz and acquired at 25 kHz and the linear leak was corrected using P/4 subtraction (leak potential −90 mV, leak sweep amplitude 10%).
The extracellular solution contained in mM included NaCl 140 (NaCl 70/Choline Chloride 70 for NaV1.7), KCl 4, CaCl2 2, MgCl2 1, HEPES 10, and glucose 10; pH 7.4; osmolarity 305 mOsm. TTX (1 μM) was added to the extracellular solution for the NaV1.8 recordings to inhibit endogenous TTX-sensitive NaV currents in CHO cells. The intracellular solution contained in mM included CsF 140, EGTA/CsOH 1/5, HEPES 10, and NaCl 10; pH 7.3 with CsOH; osmolarity 320 mOsm. Compounds were made up to a 100 mM stock in DMSO and diluted in an extracellular solution at the concentrations stated. Concentration–response curves at the resting state were acquired using a holding potential of −90 mV and a 50 ms test pulse to −20 mV (for NaV1.7) or +10 mV (for NaV1.8) every 20 s (0.05 Hz). Concentration–response curves at the inactivated state were acquired using a holding potential of −90 mV, an 8 s conditioning pulse to −40 mV, a 20 ms recovery pulse to −90 mV, and a 50 ms test pulse to +10 mV every 20 s (0.05 Hz). Peak current was normalized to the buffer control after 2 min incubations of increasing concentrations of the compound (1–100 μM). I–V curves were obtained with a holding potential of −90 mV and a series of 500 ms step pulses that ranged from −80 to +90 mV in 5 mV increments, followed by a 20 ms test pulse to +10 mV to assess the voltage-dependence of the steady-state fast inactivation (repetition interval 5 s). Peak currents were normalized to the buffer control before and after the 5 min incubation of the compound (50 μM).
The data were plotted and analyzed via GraphPad Prism, version 9.5.1. Statistical significance was defined as p < 0.05 and was determined via the paired t-test. Concentration–response curves were fitted with a four-parameter Hill equation with the variable Hill coefficient. Conductance–voltage curves were generated by calculating the conductance (G) at each voltage (V) using the equation G = I/(V − Vrev), where Vrev is the reversal potential. Conductance–voltage and steady-state fast inactivation relationships were fitted using a Boltzmann equation. The data are expressed as the mean ± standard error of the mean (SEM).

[2] = 8 s conditioning voltage step to −40 mV to inactivate approximately half of the available channels, read-out: IC50, inhibition of NaV1.8 peak current after inactivating conditioning step
[3] = resting state: 50 ms voltage step to 10 mV from −90 mV holding potential, read-out: IC50, inhibition of NaV1.8 peak current

Structure (SMILES)	IC50 [1]	IC50 (nAChR subtype α3β4)	IC50 (human NaV1.7/β1)	IC50 (human NaV1.8/β3; [2])	V1/2 of voltage-dependence of activation of NaV1.8 (human NaV1.8/β3)	V1/2 of voltage-dependence of steady-state fast inactivation of NaV1.8 (human NaV1.8/β3)	IC50 (human NaV1.8/β3; [3])	Shift of V1/2 of voltage-dependence of activation of NaV1.8 (human NaV1.8/β3; 50 µM, n = 5)
CC1(C)NC2Cc3c([nH]c4ccccc34)C3(C)CCC1CC23 (stereo not shown) [aristoteline]	16 µM	0.4 µM	49 ± 7 µM	30 ± 6 µM	1.0 ± 0.0 mV	−34.9 ± 1.4 mV	68 ± 3 µM	
CC1=CC[C@H]2C[C@@H]1[C@@H](Cc1c[nH]c3ccccc13)NC2(C)C [hobartine]			69 ± 3 µM	20 ± 2 µM	−8.6 ± 0.8 mV	−41.1 ± 3.8 mV	54 ± 1 µM	−9.0 mV
